The values below come from PubChem BioAssay (NCI).

Where “and” joins values, the source holds several entries; their conditions need not be identical. Equal values may be shown once.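 Method: 48-hour compound exposure of cells in 96-well plates, five concentrations, linear interpolation of endpoints. Here, GI50 denotes the concentration required for 50% inhibition of growth. TGI is the concentration that stops growth completely.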 Bounds are passed on as bounds.

Test systems include HCC-2998 colon; HCT-15 colon; HL-60(TB) leukemia; K-562 leukemia; MALME-3M melanoma; NCI-H522 lung; SN12C renal; SNB-19 CNS; U251 CNS.
Common to all, as to experiment: inhibition of tumour cell growth, NCI panel, 48 h

Consider `N#CC1=C(N)Oc2c(sc3c(F)cccc23)C1c1ccc(F)cc1` (stereo unspecified), for which the GI50 in the test with HCC-2998 colon is 1.62 µM; with HCT-15 colon, 0.421 µM; in the test on HL-60(TB) leukemia, 0.284 µM; in the test with K-562 leukemia, 0.354 µM; in the test on MALME-3M melanoma, 0.602 µM; with NCI-H522 lung it was 0.473 µM. For the same compound, the GI50 was 1.28 µM in the test on SN12C renal, 0.585 µM in the test on SNB-19 CNS and 0.569 µM with U251 CNS. Besides, the TGI with HCC-2998 colon stood at 8.58 µM; in the test on HCT-15 colon, 12 µM; with HL-60(TB) leukemia, 2.74 µM; in the test on K-562 leukemia it was 18.4 µM; with MALME-3M melanoma, 22.2 µM; with NCI-H522 lung, 10.8 µM. For the same compound, the TGI in the test on SN12C renal was found to be 15.8 µM; in the test with SNB-19 CNS it was 15 µM; in the test with U251 CNS, 15.3 µM.

For the compound `CCCCCN(CCCCC)CC(O)c1cc2c(c3ccccc13)CCCC2` (stereo unspecified), the GI50 in the test with HCC-2998 colon was 2.54 µM and 4.28 µM; with HCT-15 colon, 5.31 µM and 6.52 µM; in the test on HL-60(TB) leukemia, 2.53 µM and 7.51 µM; in the test with K-562 leukemia, 2.56 µM and 16.3 µM; in the test on MALME-3M melanoma, 3.71 µM and 10.4 µM; with NCI-H522 lung, 2.02 µM and 3.24 µM. Besides, the GI50 was 6.12 µM and 13.8 µM in the test with SN12C renal; 11 µM and 17.9 µM in the test with SNB-19 CNS; 6.33 µM and 11.5 µM with U251 CNS. For the same compound, the TGI is 5.99 µM and 15.6 µM with HCC-2998 colon; 20.8 µM and 26.4 µM with HCT-15 colon; 10.9 µM and > 100 µM with K-562 leukemia; 15.6 µM and 24.6 µM in the test on MALME-3M melanoma; 7.72 µM and 13.4 µM in the test with NCI-H522 lung; 19.8 µM and 30 µM with SN12C renal. The TGI with SNB-19 CNS is 22.9 µM and 39.4 µM; in the test on U251 CNS, 20.3 µM and 29.6 µM.

Regarding `Cc1cc(=O)oc2cc(OCc3nc4ccccc4c(=O)[nH]3)ccc12`, the TGI in the test with HCC-2998 colon, in the test with HCT-15 colon, in the test with HL-60(TB) leukemia, with K-562 leukemia, with MALME-3M melanoma and in the test on NCI-H522 lung was over 100 µM in each case. The TGI with SN12C renal, in the test with SNB-19 CNS and with U251 CNS was over 100 µM each time.

With `C/C(=N\O)C(CN1CCCCC1)C(c1ccccc1)c1c(O)c2ccccc2oc1=O` (stereo unspecified), the TGI was over 100 µM in the test on HCC-2998 colon; over 10 µM in the test with HL-60(TB) leukemia; over 10 µM in the test on K-562 leukemia; over 100 µM in the test on MALME-3M melanoma; over 100 µM with NCI-H522 lung; over 100 µM with SN12C renal. In the test with SNB-19 CNS, this compound yielded a TGI of over 100 µM.

Consider `CCOc1ccccc1NC(=O)C1=C(C)NC(C)=C(C(=O)Nc2ccccc2OCC)C1c1ccc(NC(C)=O)cc1`, for which the TGI is 35.7 µM in the test with HCC-2998 colon; over 100 µM in the test with HL-60(TB) leukemia; over 100 µM with K-562 leukemia; over 100 µM with MALME-3M melanoma; 23.6 µM with NCI-H522 lung; over 100 µM with SN12C renal. For the same compound, the TGI in the test with SNB-19 CNS and in the test on U251 CNS was over 100 µM in each case.

Consider `Cc1ccc(/C=C2\CCCC\C2=N\O)cc1`, for which the TGI was over 100 µM with HCC-2998 colon; over 100 µM in the test on HCT-15 colon; 30.7 µM with HL-60(TB) leukemia; over 100 µM in the test on K-562 leukemia; over 100 µM in the test on SN12C renal; over 100 µM with SNB-19 CNS. Further, the TGI in the test with U251 CNS was over 100 µM.

`C=CCN=C1NC(=O)C(CC(=O)Nc2ccc(C)cc2)S1` (stereo unspecified): the TGI in the test with HCC-2998 colon, with HCT-15 colon, in the test on HL-60(TB) leukemia, in the test on K-562 leukemia, in the test on MALME-3M melanoma and with NCI-H522 lung was over 100 µM in each case. Also, the TGI in the test with SN12C renal, in the test on SNB-19 CNS and in the test on U251 CNS was over 100 µM in each case.

Turning to `CC(C)C[C@@H]1NC(=O)[C@@H]2CCCN2C(=O)[C@@H]2CCCN2C(=O)[C@H](CC(C)C)NC(=O)[C@H](CO)NC(=O)[C@H](CCCCN)NC(=O)[C@H]([C@H](C)O)NC(=O)[C@@H]2CCCC[C@@H](NC1=O)C(=O)N[C@@H](Cc1ccccc1)C(=O)N1CCC[C@H]1C(=O)N[C@@H](CC(=O)O)C(=O)NCC(=O)N[C@@H](CCCN=C(N)N)C(=O)N2`, the GI50 in the test with HCC-2998 colon, in the test with HCT-15 colon, with K-562 leukemia, in the test with MALME-3M melanoma, in the test on NCI-H522 lung and in the test with SN12C renal was over 50 µM each time. The GI50 in the test with SNB-19 CNS and in the test with U251 CNS was over 50 µM each time. Also, the TGI in the test with HCC-2998 colon, in the test with HCT-15 colon, in the test with K-562 leukemia, in the test on MALME-3M melanoma, with NCI-H522 lung and with SN12C renal was over 50 µM throughout. The TGI in the test on SNB-19 CNS and in the test on U251 CNS was over 50 µM in each case.

For `C=C(C)[C@H](O)C(O)CC(C)[C@@H]1CCC23CC12CCC1[C@@]2(C)CCC(OC(C)=O)C(C)(C)C2CC(OC2OC(COC(C)=O)C(O)C(O)C2O)[C@]13C` (stereo partly specified), the TGI with HCC-2998 colon was 12.4 µM; with HCT-15 colon it was 10.4 µM; in the test with HL-60(TB) leukemia it was 5.08 µM; in the test with K-562 leukemia, 10.8 µM; in the test on MALME-3M melanoma it was 14.7 µM; in the test with NCI-H522 lung, 9.91 µM. Moreover, the values for the TGI in the test with SN12C renal, with SNB-19 CNS and with U251 CNS were 13 µM, 11.6 µM and 10.1 µM, respectively.

Consider `CC1=Nn2c(nnc2-c2ccc(N)cc2)NC(C)(C)C1`, for which the TGI with HCC-2998 colon, with HCT-15 colon, with HL-60(TB) leukemia, in the test with K-562 leukemia, in the test with MALME-3M melanoma and in the test on NCI-H522 lung was over 100 µM in each case. For the same compound, the TGI in the test with SNB-19 CNS and in the test on U251 CNS was over 100 µM each time.

Regarding `N#C[S-].[Au+].c1ccc(CN2[CH-]N(Cc3ccccc3)C(c3ccccc3)=C2c2ccccc2)cc1`, in the test on HL-60(TB) leukemia, the GI50 was 0.414 µM and the TGI turned out to be 2.34 µM. Also, in the test on MALME-3M melanoma, the GI50 is 0.284 µM and the TGI stood at 1.15 µM.

For the compound `COc1cc([N+](=O)[O-])c(OC)cc1-c1nc2sc(Cl)cn2c1/C=N/NC(=N)N/N=C/c1c(-c2cc(OC)c([N+](=O)[O-])cc2OC)nc2sc(Cl)cn12`, the GI50 with HCC-2998 colon was 1.69 µM; in the test with HCT-15 colon it was 4.54 µM; with MALME-3M melanoma, 1.61 µM. For the same compound, the results for the TGI with HCC-2998 colon, with HCT-15 colon and in the test with MALME-3M melanoma were 3.15 µM, 22.5 µM and 3.28 µM, respectively.

Regarding `COc1cc([C@@H]2OC(=O)C3C2C(=O)O[C@H]3c2cc(OC)c(OC)c(OC)c2)cc(OC)c1OC` (stereo partly specified), the TGI with HCC-2998 colon, in the test on HCT-15 colon, in the test on HL-60(TB) leukemia, in the test on K-562 leukemia, in the test with NCI-H522 lung and with SN12C renal was over 100 µM throughout. For the same compound, the TGI in the test on SNB-19 CNS and in the test on U251 CNS was over 100 µM throughout.
